Test results published in the NIST ThermoML archive (doi:10.1016/j.jct.2017.07.034).

Columns and labels:
[1] = mn = molality of the nth substance listed, in mol/kg; details: 99.6 kPa, Liquid, Vibrating tube method
[2] = 99.6 kPa, Liquid, Vibrating tube method

CCN1C(=O)N(C)[C@@H]2[C@H]1N(C)C(=O)N2CC + O
mass density [kg/m3], [1]
Details | m1 = 0.01976 | m1 = 0.04272 | m1 = 0.06009 | m1 = 0.07765 | m1 = 0.1094 | m1 = 0.136 | m1 = 0.155 | m1 = 0.1749 | m1 = 0.1935
278.15 K | 1000.71 | 1001.58 | 1002.23 | 1002.88 | 1004.07 | 1005.05 | 1005.75 | 1006.48 | 1007.16
288.15 K | 999.821 | 1000.65 | 1001.28 | 1001.91 | 1003.04 | 1003.98 | 1004.64 | 1005.34 | 1005.98
298.15 K | 997.745 | 998.551 | 999.157 | 999.764 | 1000.85 | 1001.76 | 1002.4 | 1003.07 | 1003.68
308.15 K | 994.713 | 995.494 | 996.08 | 996.672 | 997.724 | 998.597 | 999.219 | 999.861 | 1000.46
318.15 K | 990.876 | 991.636 | 992.207 | 992.779 | 993.803 | 994.654 | 995.256 | 995.879 | 996.461

CCN1C(=O)N(C)[C@@H]2[C@H]1N(C)C(=O)N2CC + [2H]O[2H]
mass density [kg/m3], [1]
Details | m1 = 0.02067 | m1 = 0.03855 | m1 = 0.06093 | m1 = 0.08301 | m1 = 0.09921 | m1 = 0.1206 | m1 = 0.1402 | m1 = 0.159 | m1 = 0.1743
278.15 K | 1105.97 | 1106.36 | 1106.84 | 1107.32 | 1107.67 | 1108.14 | 1108.56 | 1108.97 | 1109.3
288.15 K | 1106.17 | 1106.51 | 1106.94 | 1107.36 | 1107.67 | 1108.07 | 1108.44 | 1108.8 | 1109.08
298.15 K | 1104.7 | 1105 | 1105.38 | 1105.75 | 1106.03 | 1106.39 | 1106.71 | 1107.03 | 1107.28
308.15 K | 1101.97 | 1102.24 | 1102.58 | 1102.91 | 1103.16 | 1103.47 | 1103.76 | 1104.04 | 1104.28
318.15 K | 1098.15 | 1098.4 | 1098.71 | 1099.01 | 1099.23 | 1099.52 | 1099.78 | 1100.04 | 1100.24

[2H]O[2H] [water-d2]
[2]
Details | mass density [kg/m3]
278.15 K | 1105.52
288.15 K | 1105.78
298.15 K | 1104.34
308.15 K | 1101.65
318.15 K | 1097.87

[2H]O[2H] [water-d2] + CCN1C(=O)N(C)[C@@H]2[C@H]1N(C)C(=O)N2CC
[1], m2 = 0
Details | mass density [kg/m3]
278.15 K | 1105.52
288.15 K | 1105.78
298.15 K | 1104.34
308.15 K | 1101.65
318.15 K | 1097.87

O [water] + CCN1C(=O)N(C)[C@@H]2[C@H]1N(C)C(=O)N2CC
Details | mass density [kg/m3]
[1], 278.15 K, m2 = 0 | 999.964
